Where two headings read alike, the source gives them in different places.
What was measured:
Assay type in all cases: cell-based, human
[1] = system: A549 cells; test: Intracellular GSH levels by HPLC-EC in A549 cells
Experimental: (§1) Cell lines and culture conditions. Human lung epithelial cancer (A549), human leukemia HL-60 and human prostate (PC-3) tumor cells were purchased from ATCC (Manassas, Va.). A549 and PC-3 cells were grown in Ham's F12 medium (F12) and Kaighn's modification of Ham's F12 medium (F12K) with 2 mM L-glutamine (ATCC), respectively, supplemented with 10% fetal bovine serum (FBS) and 5% pen/strep (10,000 unit, Cellgro). HL-60 cells were grown in Iscove's modified Dulbecco's medium with 4 mM L-glutamine (ATCC) supplemented with 20% FBS and 5% pen/strep. Cell were grown in T-75 flask at 37° C. and 5% CO2 air atmosphere and in 24-well plates for GSH levels and LDH release measurements.
(§2) Intracellular levels of GSH. Intracellular GSH levels can be determined by HPLC-EC. Cultured cells from 24-well plates were washed once with 1 ml of PBS and then re-suspended in 0.5 ml of distilled water with 40 μM of digitonin (2 mM stock solution in DMSO) for 30 min at room temperature. Then, 50 μl of 10% meta-phosphoric acid were added (1% final concentration), the samples were sonicated for 2 min, centrifuged at 20,000 g for 10 min, and 0.2 ml of supernatant placed in vials for HPLC analysis. […] The flow rate was […]. The retention time for GSH in these conditions was 7.5 min. The HPLC instrument was from ESA, Inc. (Chelmsford, Mass.), equipped with an autosampler (model 540) and a Coul array detector (model 5600A). The potential applied was +0.75 V vs. H/Pd electrode, and the injection volume 5 μl.

[2] = system: HL-60 cells; test: Cytotoxicity as LDH release in HL-60 cells; conditions: 48 hours treatment; for LDH release, % of control at 50 µM: Homo sapiens, read-out: LDH rel. % con.
Experimental: as §1
(§3) Assessment of cytotoxicity. In one exemplary method, membrane integrity of A549, HL-60 and PC-3 cells was used as an index of drug-induced cytotoxicity, and was assessed by monitoring the release of cytosolic lactate dehydrogenase (LDH). LDH activity was measured in the culture medium and cell lysates (50 mM HEPES, Triton X-100 0.5%, pH 7) using a plate reader format as previously described (41). Briefly, 5 μl of cell culture supernatant and lysates were incubated with 0.24 mM NADH in a Tris/NaCl pH 7.2 buffer in 96-well plates for 5 min at 25° C. The reaction was started by the addition of 9.8 mM pyruvate and the consumption of NADH followed at 340 nm for 5 min at 30° C. Percent LDH release was calculated by the following: (supernatant LDH/supernatant LDH+lysate LDH)×100.

[3] = system: PC-3 cells; test: Cytotoxicity as LDH release in PC-3 cells; conditions: for LDH rel. % con. / LDH release, % of control at 50 µM: PC-3, 50 μM, 48 hours treatment; for LDH release, % of control at 50 µM: Homo sapiens, read-out: LDH rel. % con.
Experimental: as §1, §3

[4] = system: HL-60 cells; test: Intracellular GSH levels by HPLC-EC in HL-60 cells; conditions: 24 hours treatment; for activity at 75 µM / activity at 50 µM: Homo sapiens, read-out: Int. GSH % con.
Experimental: as §1, §2

[5] = system: A549 cells; test: Cytotoxicity as LDH release in A549 cells; conditions: A549, 75 μM, 48 hours treatment; for LDH release, % of control at 75 µM: Homo sapiens, read-out: LDH rel. % con.
Experimental: as §1, §3

[6] = system: PC-3 cells; test: Intracellular GSH levels by HPLC-EC in PC-3 cells
Experimental: as §1, §2

[7] = A549, 50 μM, 24 hours treatment
[8] = PC-3, 25 μM, 24 hours treatment
[9] = Homo sapiens, A549, 25 μM, 2 h, read-out: Intracellular GSH levels, % compared to control
[10] = Homo sapiens, A549, 25 μM, 4 h, read-out: Intracellular GSH levels, % compared to control
[11] = Homo sapiens, A549, 25 μM, 24 hours treatment, read-out: Int. GSH % con.
[12] = Homo sapiens, PC-3, 25 μM, 24 hours treatment, read-out: Int. GSH % con.
[13] = A549, 25 μM, 24 hours treatment

With `O=c1c(O)c(-c2cc(O)c(O)c(O)c2)oc2cc(O)cc(O)c12` [Myricetin] as the compound, how does the “Int. GSH % con.” value ([1]; A549, 75 μM, 24 hours treatment) read?
The value was 55 % con.

And the “LDH rel. % con.” value ([2]; HL-60, 50 μM)?
Its value is 139 % con.

What about the “LDH rel. % con.” value [3] of the same compound?
Its value is 93 % con.

What about the “Int. GSH % con.” value ([4]; HL-60, 75 μM) of the same compound?
Its value is 27 % con.

What about the “LDH rel. % con.” value [5] of the same compound?
Its value is 206 % con.

What about the “Int. GSH % con.” value ([6]; PC-3, 50 μM, 24 hours treatment) of the same compound?
The value was 111 % con.

With `C[C@]12CC[C@@H]3c4ccc(O)cc4CC[C@H]3[C@@H]1CC[C@@H]2O` [β-Estradiol, β-estradiol, reference compound] as the compound, how does the “Int. GSH % con.” value [1, 7] read?
Its value is 41 % con.

What about the “LDH rel. % con.” value ([2]; HL-60, 25 μM) of the same compound?
The value was 120 % con.

And the “Int. GSH % con.” value ([4]; HL-60, 25 μM)?
The value was 70 % con.

And the “Int. GSH % con.” value [6, 8]?
Its value is 98 % con.

With `O=c1cc(-c2ccccc2)oc2cc(O)c(O)c(O)c12` [Baicalein, 5,6,7 trihydroxyflavone] as the compound, how does the activity at 50 µM ([1]; Homo sapiens, A549, 50 μM, 24 hours treatment, read-out: Int. GSH % con.) read?
Its activity at 50 µM is 41%.

And the LDH release, % of control at 50 µM ([2]; HL-60, 50 μM)?
Its LDH release, % of control at 50 µM is 129%.

And the LDH release, % of control at 50 µM [3]?
The LDH release, % of control at 50 µM was 94%.

What about the activity at 75 µM ([4]; HL-60, 75 μM) of the same compound?
Its activity at 75 µM is 82%.

What about the LDH release, % of control at 75 µM [5] of the same compound?
Its LDH release, % of control at 75 µM is 206%.

What about the activity at 50 µM ([6]; Homo sapiens, PC-3, 50 μM, 24 hours treatment, read-out: Int. GSH % con.) of the same compound?
Its activity at 50 µM is 100%.

`O=C(/C=C/c1ccc(O)cc1)c1ccc(O)cc1O` [2′,4′,4-THC, 2′,4′,4 trihydroxychalcone] was tested. Which activity at 25 µM [1, 9] did it give?
The activity at 25 µM was 6.8 ± 0.2%.

What about the activity at 25 µM [1, 10] of the same compound?
The activity at 25 µM was under 5%.

For `O=c1cc(-c2ccccc2)oc2cc(O)ccc12` [7-HF, 7-Hydroxyflavone], which “effect on intracellular GSH (words)” value ([1]; A549 cells) is on record?
Its value is “almost as effective as chrysin”.

What about the activity at 25 µM [1, 9] of the same compound?
The activity at 25 µM was 58.1 ± 1.4%.

What about the activity at 25 µM [1, 11] of the same compound?
Its activity at 25 µM is under 5%.

And the LDH release, % of control at 50 µM ([2]; HL-60, 50 μM)?
The LDH release, % of control at 50 µM was 113%.

And the LDH release, % of control at 50 µM [3]?
The LDH release, % of control at 50 µM was 96%.

And the activity at 50 µM ([4]; HL-60, 50 μM)?
The activity at 50 µM was 56%.

And the LDH release, % of control at 75 µM [5]?
The LDH release, % of control at 75 µM was 113%.

And the activity at 25 µM [6, 12]?
Its activity at 25 µM is 63%.

What does the source list for `COc1cc2c(cc1O)CC[C@@H]1[C@@H]2CC[C@]2(C)[C@@H](O)CC[C@@H]12` [2-ME, 2-methoxyestradiol, reference compound]?
Int. GSH % con. [1, 7]: 49 % con.; LDH rel. % con. ([2]; HL-60, 25 μM): 265 % con.; LDH rel. % con. [3]: 128 % con.; Int. GSH % con. ([4]; HL-60, 25 μM): 41 % con.; LDH rel. % con. [5]: 150 % con.; Int. GSH % con. [6, 8]: 68 % con.

What does the source list for `O=C(/C=C/c1ccccc1O)c1ccccc1` [2-HC, 2-hydroxychalcone]?
activity at 25 µM [1, 9]: < 5%; activity at 25 µM [1, 10]: < 5%

For `O=C1CC(c2ccc(O)cc2)Oc2cc(O)cc(O)c21` (stereo not shown) [Naringenin, 4′,5,7-trihydroxyflavanone], which activity at 25 µM [1, 11] is on record?
Its activity at 25 µM is 17%.

What about the LDH release, % of control at 50 µM ([2]; HL-60, 50 μM) of the same compound?
The LDH release, % of control at 50 µM was 95%.

What about the LDH release, % of control at 50 µM [3] of the same compound?
Its LDH release, % of control at 50 µM is 107%.

And the activity at 75 µM ([4]; HL-60, 75 μM)?
The activity at 75 µM was 73%.

What about the LDH release, % of control at 75 µM [5] of the same compound?
The LDH release, % of control at 75 µM was 130%.

And the activity at 25 µM [6, 12]?
Its activity at 25 µM is 83%.

For `O=c1c(-c2ccc(O)cc2)coc2cc(O)cc(O)c12` [Genistein], which “Intracellular GSH levels, % compared to control” value ([1]; A549, 25 μM, 4 h) is on record?
Its value is 34.8 ± 1.1%.

And the “Int. GSH % con.” value [1, 13]?
The value was 5 % con.

And the “LDH rel. % con.” value ([2]; HL-60, 50 μM)?
The value was 160 % con.

And the “LDH rel. % con.” value [3]?
The value was 131 % con.

What about the “Int. GSH % con.” value ([4]; HL-60, 75 μM) of the same compound?
Its value is 57 % con.

What about the “LDH rel. % con.” value [5] of the same compound?
Its value is 350 % con.

And the “Int. GSH % con.” value [6, 8]?
The value was 81 % con.

`O=c1cc(-c2ccc(O)cc2)oc2cc(O)cc(O)c12` [Apigenin] was tested. Which “Intracellular GSH levels, % compared to control” value ([1]; A549, 25 μM, 4 h) did it give?
The value was 17.1 ± 1.4%.

And the “Int. GSH % con.” value [1, 13]?
Its value is 9 % con.

What about the “LDH rel. % con.” value ([2]; HL-60, 50 μM) of the same compound?
The value was 259 % con.

What about the “LDH rel. % con.” value [3] of the same compound?
The value was 142 % con.

And the “effect on curcumin-induced toxicity, LDH release” value ([3]; PC-3 cells, 48 hours (FIG. 20C))?
The value was “potentiated the curcumin's toxicity, but unexpectedly less than chrysin”.

What about the “Int. GSH % con.” value ([4]; HL-60, 50 μM) of the same compound?
Its value is 66 % con.

What about the “LDH rel. % con.” value [5] of the same compound?
Its value is 284 % con.

And the “Int. GSH % con.” value [6, 8]?
The value was 32 % con.

What about the “effect on intracellular GSH (words)” value ([6]; PC-3 cells) of the same compound?
The value was “one active flavone-like structure for inducing GSH depletion”.

What does the source list for `O=c1cc(-c2ccccc2)oc2ccccc12` [Flavone, flavone]?
activity at 25 µM [1, 9]: 89.7 ± 0.6%; activity at 25 µM [1, 10]: 29.7 ± 4.8%; activity at 25 µM [1, 11]: < 5%; LDH release, % of control at 50 µM ([2]; HL-60, 50 μM): 116%; LDH release, % of control at 50 µM [3]: 91%; activity at 50 µM ([4]; HL-60, 50 μM): 85%; LDH release, % of control at 75 µM [5]: 164%; activity at 25 µM [6, 12]: 84%
